# According to PubChem BioAssay AID180 (DTP/NCI, 2004):
# Several values for one entry are separate records, joined by “and”; a condition that tells them apart may be missing. Equal entries are not always repeated.
# System: BDF1 mice, Adenocarcinoma 755 s.c., tumor weight T/C
# Assay: NCI In Vivo Anticancer Drug Screen. Data for tumor model Adenocarcinoma 755 (subcutaneous) in B6D2F1 (BDF1) mice
# Details: endpoint: mean tumor weight, higher = larger tumour
# Protocol: The antitumor activity of compounds was measured in mice bearing transplantable tumors. Survival or tumor size were measured and the results are expressed as the measurement made in the treated group (T) divided by the measurement made in the vehicle treated control group (C). The tumor model used in this assay is Adenocarcinoma 755 (subcutaneous) in B6D2F1 (BDF1) mice
# [1] = dose: 100.0 mg/kg/injection, schedule: Q01DX011 (ip), vehicle: saline
# [2] = dose: 125.0 mg/kg/injection, schedule: Q01DX011 (ip), vehicle: carboxymethylcellulose (CMC)
# [3] = dose: 200.0 mg/kg/injection, schedule: Q01DX011 (ip), vehicle: saline
# [4] = dose: 250.0 mg/kg/injection, schedule: Q01DX011 (ip), vehicle: carboxymethylcellulose (CMC)
# [5] = dose: 500.0 mg/kg/injection, schedule: Q01DX011 (ip), vehicle: carboxymethylcellulose (CMC)
# [6] = dose: 800.0 mg/kg/injection, schedule: Q01DX011 (ip), vehicle: saline
# [7] = dose: 100.0 mg/kg/injection, schedule: Q01DX011 (ip), vehicle: methylcellulose (MC)
# [8] = dose: 11.0 mg/kg/injection, schedule: Q01DX011 (ip), vehicle: methylcellulose (MC)
# [9] = dose: 75.0 mg/kg/injection, schedule: Q01DX011 (ip), vehicle: methylcellulose (MC)
# [10] = dose: 150.0 mg/kg/injection, schedule: Q01DX011 (ip), vehicle: methylcellulose (MC)
smiles,measurement,setting,value
C[C@H]1C[C@@H]2[C@H](C(=O)C[C@@]3(C)[C@H]2CC[C@]3(O)C(=O)CO)[C@@]2(C)C=CC(=O)C=C12,T/C,"dose: 50.0 mg/kg/injection, schedule: Q01DX011 (sc), vehicle: steriod suspending solution",30 % of control
same,T/C,"dose: 100.0 mg/kg/injection, schedule: Q01DX011 (sc), vehicle: steriod suspending solution",23 % of control
Cn1c(=O)c2cc[nH]c2n(C)c1=O,T/C,"dose: 30.0 mg/kg/injection, schedule: Q01DX011 (ip), vehicle: carboxymethylcellulose (CMC)",87 % of control
same,T/C,"dose: 60.0 mg/kg/injection, schedule: Q01DX011 (ip), vehicle: carboxymethylcellulose (CMC)",100 % of control
O=C1NC(=O)C(c2ccc(Cl)cc2)(c2ccccc2Cl)N1 (stereo not drawn),T/C,"dose: 50.0 mg/kg/injection, schedule: Q01DX011 (ip), vehicle: saline",91 % of control
same,T/C,[1],82 % of control
same,T/C,[2],81 % of control
same,T/C,[3],58 % of control and 77 % of control
same,T/C,[4],28 % of control
same,T/C,"dose: 400.0 mg/kg/injection, schedule: Q01DX011 (ip), vehicle: other",71 % of control
same,T/C,[5],81 % of control
same,T/C,"dose: 800.0 mg/kg/injection, schedule: Q01DX011 (ip), vehicle: other",30 % of control
same,T/C,[6],76 % of control
same,T/C,"dose: 1600.0 mg/kg/injection, schedule: Q01DX011 (ip), vehicle: saline",107 % of control
Nc1ncnc2c1cnn2Cc1ccc(Cl)cc1,T/C,"dose: 9.5 mg/kg/injection, schedule: Q01DX011 (ip), vehicle: carboxymethylcellulose (CMC)",98 % of control
same,T/C,"dose: 75.0 mg/kg/injection, schedule: Q01DX011 (ip), vehicle: carboxymethylcellulose (CMC)",38 % of control
Nc1nc(=S)cc(Nc2ccc(Cl)c(Cl)c2)[nH]1,T/C,"dose: 15.0 mg/kg/injection, schedule: Q01DX011 (ip), vehicle: methylcellulose (MC)",114 % of control
same,T/C,"dose: 31.0 mg/kg/injection, schedule: Q01DX011 (ip), vehicle: methylcellulose (MC)",92 % of control
O=C(C1C(c2ccccc2)N1Cc1ccccc1)C1C(c2ccccc2)N1Cc1ccccc1 (stereo not drawn),T/C,"dose: 25.0 mg/kg/injection, schedule: Q01DX011 (ip), vehicle: methylcellulose (MC)",47 % of control
same,T/C,"dose: 50.0 mg/kg/injection, schedule: Q01DX011 (ip), vehicle: methylcellulose (MC)",77 % of control
same,T/C,[7],66 % of control
Nc1nc(SCc2ccccc2)c2ncn(Cc3ccccc3)c2n1,T/C,"dose: 62.5 mg/kg/injection, schedule: Q01DX011 (ip), vehicle: methylcellulose (MC)",28 % of control
same,T/C,"dose: 125.0 mg/kg/injection, schedule: Q01DX011 (ip), vehicle: methylcellulose (MC)",14 % of control
same,T/C,"dose: 250.0 mg/kg/injection, schedule: Q01DX011 (ip), vehicle: methylcellulose (MC)",7 % of control
CN(C)c1ncnc2c1ncn2C1CCCCO1 (stereo not drawn),T/C,[8],70 % of control
same,T/C,"dose: 22.5 mg/kg/injection, schedule: Q01DX011 (ip), vehicle: methylcellulose (MC)",47 % of control
same,T/C,"dose: 45.0 mg/kg/injection, schedule: Q01DX011 (ip), vehicle: methylcellulose (MC)",47 % of control
same,T/C,"dose: 90.0 mg/kg/injection, schedule: Q01DX011 (ip), vehicle: methylcellulose (MC)",20 % of control
O=c1[nH]c2[nH]c(S(=O)(=O)O)nc(=S)c2[nH]1,T/C,[9],43 % of control
same,T/C,[10],55 % of control
same,T/C,"dose: 300.0 mg/kg/injection, schedule: Q01DX011 (ip), vehicle: methylcellulose (MC)",67 % of control
same,T/C,"dose: 600.0 mg/kg/injection, schedule: Q01DX011 (ip), vehicle: methylcellulose (MC)",28 % of control
Nc1nsnc1C(=O)O,T/C,"dose: 93.0 mg/kg/injection, schedule: Q01DX011 (ip), vehicle: carboxymethylcellulose (CMC)",80 % of control
same,T/C,"dose: 187.0 mg/kg/injection, schedule: Q01DX011 (ip), vehicle: carboxymethylcellulose (CMC)",98 % of control
Nc1nc(SCC(=O)c2ccccc2)c2ncn(C3OC(CO)C(O)C3O)c2n1 (stereo not drawn),T/C,"dose: 37.5 mg/kg/injection, schedule: Q01DX011 (ip), vehicle: methylcellulose (MC)",15 % of control
same,T/C,[9],5 % of control
same,T/C,[10],5 % of control
CCC(C)Cn1cnc2c(Sc3c([N+](=O)[O-])ncn3C)nc(N)nc21 (stereo not drawn),T/C,[8],58 % of control
same,T/C,"dose: 33.0 mg/kg/injection, schedule: Q01DX011 (ip), vehicle: methylcellulose (MC)",10 % of control
same,T/C,[7],1 % of control
CC1CC(C)(O)CC(C(O)CC2CC(=O)NC(=O)C2)C1=O (stereo not drawn),T/C,"dose: 0.05 mg/kg/injection, schedule: Q01DX011 (ip), vehicle: methylcellulose (MC)",71 % of control
same,T/C,"dose: 0.1 mg/kg/injection, schedule: Q01DX011 (ip), vehicle: alkali diluted with saline",62 % of control
same,T/C,"dose: 0.1 mg/kg/injection, schedule: Q01DX011 (ip), vehicle: methylcellulose (MC)",44 % of control
same,T/C,"dose: 0.2 mg/kg/injection, schedule: Q01DX011 (ip), vehicle: alkali diluted with saline",17 % of control
same,T/C,"dose: 0.2 mg/kg/injection, schedule: Q01DX011 (ip), vehicle: methylcellulose (MC)",32 % of control
NC(C=O)C(O)C(O)C(O)CO (stereo not drawn),T/C,[4],104 % of control and 204 % of control
same,T/C,[5],225 % of control
same,T/C,"dose: 1000.0 mg/kg/injection, schedule: Q01DX011 (ip), vehicle: carboxymethylcellulose (CMC)",102 % of control and 110 % of control
same,T/C,"dose: 2000.0 mg/kg/injection, schedule: Q01DX011 (ip), vehicle: methylcellulose (MC)",89 % of control
same,T/C,"dose: 2500.0 mg/kg/injection, schedule: Q01DX011 (ip), vehicle: methylcellulose (MC)",72 % of control
Cc1nc2nc(N)nc(N)c2nc1C,T/C,"dose: 12.62 mg/kg/injection, schedule: Q01DX011 (ip), vehicle: carboxymethylcellulose (CMC)",67 % of control
same,T/C,"dose: 15.63 mg/kg/injection, schedule: Q01DX011 (ip), vehicle: carboxymethylcellulose (CMC)",50 % of control
same,T/C,"dose: 62.5 mg/kg/injection, schedule: Q01DX011 (ip), vehicle: carboxymethylcellulose (CMC)",122 % of control and 123 % of control
same,T/C,[2],58 % of control
O=C(O)C(CS(=O)(=O)O)Nc1ncnc2nc[nH]c12 (stereo not drawn),T/C,"dose: 3.1 mg/kg/injection, schedule: Q01DX011 (ip), vehicle: saline",65 % of control
same,T/C,"dose: 6.2 mg/kg/injection, schedule: Q01DX011 (ip), vehicle: saline",40 % of control
same,T/C,"dose: 12.5 mg/kg/injection, schedule: Q01DX011 (ip), vehicle: saline",40 % of control and 43 % of control
same,T/C,"dose: 18.75 mg/kg/injection, schedule: Q01DX011 (ip), vehicle: saline",38 % of control
same,T/C,"dose: 25.0 mg/kg/injection, schedule: Q01DX011 (ip), vehicle: saline",10 % of control
same,T/C,"dose: 28.12 mg/kg/injection, schedule: Q01DX011 (ip), vehicle: saline",12 % of control
same,T/C,"dose: 45.0 mg/kg/injection, schedule: Q01DX011 (ip), vehicle: saline",4 % of control
same,T/C,"dose: 75.0 mg/kg/injection, schedule: Q01DX011 (ip), vehicle: saline",7 % of control
same,T/C,"dose: 225.0 mg/kg/injection, schedule: Q01DX011 (ip), vehicle: saline",7 % of control
c1ccc2cc(-c3cc4ccccc4s3)ccc2c1,T/C,[1],70 % of control
same,T/C,[3],59 % of control
same,T/C,"dose: 400.0 mg/kg/injection, schedule: Q01DX011 (ip), vehicle: saline",49 % of control
same,T/C,[6],42 % of control
CCn1cnc2c(SC(C)C)ncnc21,T/C,"dose: 16.0 mg/kg/injection, schedule: Q01DX011 (ip), vehicle: carboxymethylcellulose (CMC)",42 % of control
same,T/C,"dose: 31.0 mg/kg/injection, schedule: Q01DX011 (ip), vehicle: carboxymethylcellulose (CMC)",4 % of control
CC(=O)OCC(=O)[C@@]1(O)CC[C@H]2[C@@H]3C[C@H](C)C4=CC(=O)C=C[C@]4(C)[C@H]3[C@@H](O)C[C@@]21C,T/C,"dose: 2.5 mg/kg/injection, schedule: Q01DX011 (sc), vehicle: steriod suspending solution",70 % of control
same,T/C,"dose: 3.8 mg/kg/injection, schedule: Q01DX011 (sc), vehicle: steriod suspending solution",77 % of control
same,T/C,"dose: 5.0 mg/kg/injection, schedule: Q01DX011 (sc), vehicle: steriod suspending solution",57 % of control
same,T/C,"dose: 7.5 mg/kg/injection, schedule: Q01DX011 (sc), vehicle: steriod suspending solution",68 % of control
same,T/C,"dose: 10.0 mg/kg/injection, schedule: Q01DX011 (sc), vehicle: steriod suspending solution",35 % of control
same,T/C,"dose: 15.0 mg/kg/injection, schedule: Q01DX011 (sc), vehicle: steriod suspending solution",37 % of control
same,T/C,"dose: 20.0 mg/kg/injection, schedule: Q01DX011 (sc), vehicle: steriod suspending solution",25 % of control and 40 % of control
same,T/C,"dose: 40.0 mg/kg/injection, schedule: Q01DX011 (sc), vehicle: steriod suspending solution",14 % of control and 20 % of control
same,T/C,"dose: 80.0 mg/kg/injection, schedule: Q01DX011 (sc), vehicle: steriod suspending solution",6 % of control
